In patent US20230040770A1, “HETEROCYCLIC COMPOUND AND USE THEREOF” (TAKEDA PHARMACEUTICAL COMPANY LIMITED, priority 2019, published 2023):

These compounds were tested against T1, human orexin type 2 receptor (Homo sapiens, UniProt O43614) (assay: Measurement of orexin type 2 receptor agonist activity (calcium indicator fluorescence, CHO cells forcibly expressing human OX2 receptor)). Settings: compound at 3 μM; 0% = DMSO, 100% = orexin A (human) 10 nM.
T1 construct: expressed in transfected cells
T1 sequence (O43614 1-444): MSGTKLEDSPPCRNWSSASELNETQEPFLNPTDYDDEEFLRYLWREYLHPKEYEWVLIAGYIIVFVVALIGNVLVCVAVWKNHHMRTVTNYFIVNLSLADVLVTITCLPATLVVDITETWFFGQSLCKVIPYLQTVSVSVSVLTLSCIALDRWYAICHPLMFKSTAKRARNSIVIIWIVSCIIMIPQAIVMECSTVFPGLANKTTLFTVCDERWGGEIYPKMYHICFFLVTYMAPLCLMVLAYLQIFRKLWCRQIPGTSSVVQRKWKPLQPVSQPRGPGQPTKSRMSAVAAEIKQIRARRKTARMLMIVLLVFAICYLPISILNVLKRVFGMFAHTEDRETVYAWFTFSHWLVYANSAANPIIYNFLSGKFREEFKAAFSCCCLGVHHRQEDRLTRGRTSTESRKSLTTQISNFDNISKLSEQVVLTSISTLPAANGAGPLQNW
Assay type: cell-based
Procedure, shortened: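 CHO-dhfr cells stably expressing human OX2R, loaded with Fluo-4 AM (30 min 37 °C, then 30 min RT), then given test compound. Calcium fluorescence read by FDSS over ~2 min. Activity (%) scaled from DMSO (0%) to 10 nM final orexin A (100%).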

Structure (SMILES) | OX2R agonist activity (3 μM, %) [%]
CCS(=O)(=O)N[C@@H]1[C@H](Cc2cccc(-c3cccc(OC)c3)c2F)N(C(=O)C(C)C)CC1(F)F [Example 511, N-[(2S,3R)-4,4-difluoro-2-[(2-fluoro-3′-methoxy[1,1′-biphenyl]-3-yl)methyl]-1-(2-methylpropanoyl)pyrrolidin-3-yl]ethanesulfonamide] | 98
Cc1cccc(-c2cccc(C[C@H]3[C@@H](NS(=O)(=O)N(C)C)C(F)(F)CN3C(=O)N(C)C)c2F)c1F [Example 531, (2S,3R)-2-[(2,2′-difluoro-3′-methyl[1,1′-biphenyl]-3-yl)methyl]-3-[(dimethylsulfamoyl)amino]-4,4-difluoro-N,N-dimethylpyrrolidine-1-carboxamide] | 95
CS(=O)(=O)N[C@@H]1[C@H](Cc2cccc(-c3cccc(F)c3)c2)N(C(=O)[C@H]2CCCO2)CC1(F)F [Example 26, N-{(2S,3R)-4,4-difluoro-2-[(3′-fluoro[1,1′-biphenyl]-3-yl)methyl]-1-[(2R)-oxolane-2-carbonyl]pyrrolidin-3-yl}methanesulfonamide] | 100
CN(C)C(=O)N1CC(F)(F)[C@H](NS(=O)(=O)N(C)C)[C@@H]1Cc1cccc(-c2ccccc2)c1F [Example 138, (2S,3R)-3-[(dimethylsulfamoyl)amino]-4,4-difluoro-2-[(2-fluoro[1,1′-biphenyl]-3-yl)methyl]-N,N-dimethylpyrrolidine-1-carboxamide] | 97
CCS(=O)(=O)N[C@@H]1[C@H](Cc2cccc(-c3ccc(F)c(C)c3F)c2F)N(C(=O)C2CCO2)CC1(F)F (stereo partly drawn) [Example 474, N-{(2S,3R)-4,4-difluoro-1-(oxetane-2-carbonyl)-2-[(2,2′,4′-trifluoro-3′-methyl[1,1′-biphenyl]-3-yl)methyl]pyrroldiin-3-yl}ethanesulfonamide] | 96
CCS(=O)(=O)N[C@@H]1[C@H](Cc2cccc(-c3cccc(Cl)c3)c2F)N(C(=O)C2CCO2)CC1(F)F (stereo partly drawn) [Example 268, N-[(2S,3R)-2-[(3′-chloro-2-fluoro[1,1′-biphenyl]-3-yl)methyl]-4,4-difluoro-1-(oxetane-2-carbonyl)pyrrolidin-3-yl]ethanesulfonamide] | 94
CCS(=O)(=O)N[C@H]1[C@@H](F)CN(C(=O)C2CC2)[C@H]1Cc1cccc(-c2ccccc2)c1F [Example 239, N-{(2S,3R,4S)-1-(cyclopropanecarbonyl)-4-fluoro-2-[(2-fluoro[1,1′-biphenyl]-3-yl)methyl]pyrrolidin-3-yl}ethanesulfonamide] | 102
CS(=O)(=O)N[C@@H]1[C@H](Cc2cccc(-c3ccccc3)c2F)N(C(=O)[C@H]2CCCO2)CC1(F)F [Example 73, N-{(2S,3R)-4,4-difluoro-2-[(2-fluoro[1,1′-biphenyl]-3-yl)methyl]-1-[(2R)-oxolane-2-carbonyl]pyrrolidin-3-yl}methanesulfonamide] | 104
CCS(=O)(=O)N[C@@H]1[C@H](Cc2cccc(-c3cc(F)ccc3F)c2F)N(C(=O)[C@H]2CCCO2)CC1(F)F [Example 456, N-{(2S,3R)-4,4-difluoro-1-[(2R)-oxolane-2-carbonyl]-2-[(2,2′,5′-trifluoro[1,1′-biphenyl]-3-yl)methyl]pyrrolidin-3-yl}ethanesulfonamide] | 77
Cc1cccc(-c2cccc(C[C@H]3[C@@H](NS(=O)(=O)C4CC4)C(F)(F)CN3C(=O)N3CCC3)c2F)c1 [Example 426, N-{(2S,3R)-1-(azetidine-1-carbonyl)-4,4-difluoro-2-[(2-fluoro-3′-methyl[1,1′-biphenyl]-3-yl)methyl]pyrrolidin-3-yl}cyclopropanesulfonamide] | 90
CCS(=O)(=O)N[C@@H]1[C@H](Cc2cccc(-c3cccc(F)c3)c2F)N(C(=O)C23CC(C2)C3)CC1(F)F [Example 93, N-{(2S,3R)-1-(bicyclo[1.1.1]pentane-1-carbonyl)-2-[(2,3′-difluoro[1,1′-biphenyl]-3-yl)methyl]-4,4-difluoropyrrolidin-3-yl}ethanesulfonamide] | 98
CCS(=O)(=O)N[C@@H]1[C@H](Cc2cccc(-c3cc(F)ccc3F)c2F)N(C(=O)C(C)C)CC1(F)F [Example 147, N-{(2S,3R)-4,4-difluoro-1-(2-methylpropanoyl)-2-[(2,2′,5′-trifluoro[1,1′-biphenyl]-3-yl)methyl]pyrrolidin-3-yl}ethanesulfonamide] | 91
CCS(=O)(=O)N[C@H]1[C@@H](F)CN(C(=O)C2CC2)[C@H]1Cc1cccc(-c2cccc(C)c2F)c1F [Example 519, N-{(2S,3R,4S)-1-(cyclopropanecarbonyl)-2-[(2,2′-difluoro-3′-methyl[1,1′-biphenyl]-3-yl)methyl]-4-fluoropyrrolidin-3-yl}ethanesulfonamide] | 98
CC(C)(O)C(=O)N1CC(F)(F)[C@H](NS(C)(=O)=O)[C@@H]1Cc1cccc(-c2cccc(F)c2)c1F [Example 7, N-[(2S,3R)-2-[(2,3′-difluoro[1,1′-biphenyl]-3-yl)methyl]-4,4-difluoro-1-(2-hydroxy-2-methylpropanoyl)pyrrolidin-3-yl]methanesulfonamide] | 101

The next lines start with the values.

OX2R agonist activity (3 μM, %) [%] | Structure (SMILES)
103 | CCS(=O)(=O)N[C@@H]1[C@H](Cc2cccc(-c3ccc(F)c(C)c3)c2F)N(C(=O)C(C)(C)O)CC1(F)F [Example 466, N-[(2S,3R)-2-[(2,4′-difluoro-3′-methyl[1,1′-biphenyl]-3-yl)methyl]-4,4-difluoro-1-(2-hydroxy-2-methylpropanoyl)pyrrolidin-3-yl]ethanesulfonamide]
96 | CCS(=O)(=O)N[C@H]1[C@@H](F)CN(C(=O)C(C)C)[C@H]1Cc1cccc(-c2cccc(Cl)c2)c1F [Example 298, N-[(2S,3R,4S)-2-[(3′-chloro-2-fluoro[1,1′-biphenyl]-3-yl)methyl]-4-fluoro-1-(2-methylpropanoyl)pyrrolidin-3-yl]ethanesulfonamide]
90 | Cc1cccc(-c2cccc(C[C@H]3[C@@H](NS(=O)(=O)C4CC4)[C@@H](F)CN3C(=O)C3CCO3)c2F)c1 (stereo partly drawn) [Example 484, N-[(2S,3R,4S)-4-fluoro-2-[(2-fluoro-3′-methyl[1,1′-biphenyl]-3-yl)methyl]-1-(oxetane-2-carbonyl)pyrrolidin-3-yl]cyclopropanesulfonamide]
96 | CCS(=O)(=O)N[C@H]1[C@@H](F)CN(C(=O)C(C)C)[C@H]1Cc1cccc(-c2cc(F)cc(F)c2)c1F [Example 296, N-{(2S,3R,4S)-4-fluoro-1-(2-methylpropanoyl)-2-[(2,3′,5′-trifluoro[1,1′-biphenyl]-3-yl)methyl]pyrrolidin-3-yl}ethanesulfonamide]
95 | CCS(=O)(=O)N[C@H]1[C@@H](F)CN(C(=O)C(C)C)[C@H]1Cc1cccc(-c2cccc(F)c2F)c1F [Example 297, N-{(2S,3R,4S)-4-fluoro-1-(2-methylpropanoyl)-2-[(2,2′,3′-trifluoro[1,1′-biphenyl]-3-yl)methyl]pyrrolidin-3-yl}ethanesulfonamide]
95 | Cc1ccc(F)c(-c2cccc(C[C@H]3[C@@H](NS(=O)(=O)C4CC4)[C@@H](F)CN3C(=O)C3CCO3)c2F)c1 (stereo partly drawn) [Example 488, N-[(2S,3R,4S)-2-[(2,2′-difluoro-5′-methyl[1,1′-biphenyl]-3-yl)methyl]-4-fluoro-1-(oxetane-2-carobnyl)pyrrolidin-3-yl]cycloproapnesulfonamide]
100 | Cc1cc(F)cc(-c2cccc(C[C@H]3[C@@H](NS(=O)(=O)N(C)C)C(F)(F)CN3C(=O)[C@H]3CCO3)c2F)c1 [Example 540, N′-{(2S,3R)-2-[(2,3′-difluoro-5′-methyl[1,1′-biphenyl]-3-yl)methyl]-4,4-difluoro-1-[(2R)-oxetane-2-carbonyl]pyrrolidin-3-yl}-N,N-dimethylsulfuric diamide]
96 | CS(=O)(=O)N[C@@H]1[C@H](Cc2cccc(-c3cccc(F)c3F)c2F)N(C(=O)[C@@H]2CCO2)CC1(F)F [Example 133, N-{(2S,3R)-4,4-difluoro-1-((2S)-oxetane-2-carbonyl)-2-[(2,2′,3′-trifluoro[1,1′-biphenyl]-3-yl)methyl]pyrrolidin-3-yl}methanesulfonamide]
89 | CC(C)(O)C(=O)N1C[C@H](F)[C@H](NS(C)(=O)=O)[C@@H]1Cc1cccc(-c2cccc(Cl)c2)c1F [Example 388, N-[(2S,3R,4S)-2-[(3′-chloro-2-fluoro[1,1′-biphenyl]-3-yl)methyl]-4-fluoro-1-(2-hydroxy-2-methylpropanoyl)pyrrolidin-3-yl]methanesulfonamide]
101 | Cc1cc(F)cc(-c2cccc(C[C@H]3[C@@H](NS(=O)(=O)C4CC4)C(F)(F)CN3C(=O)[C@H]3CCO3)c2F)c1 [Example 533, N-{(2S,3R)-2-[(2,3′-difluoro-5′-methyl[1,1′-biphenyl]-3-yl)methyl]-4,4-difluoro-1-[(2R)-oxetane-2-carbonyl]pyrrolidin-3-yl}cyclopropanesulfonamide]
95 | CCS(=O)(=O)N[C@H]1[C@@H](F)CN(C(=O)C2CCO2)[C@H]1Cc1cccc(-c2cccc(Cl)c2)c1F (stereo partly drawn) [Example 368, N-[(2S,3R,4S)-2-[(3′-chloro-2-fluoro[1,1′-biphenyl]-3-yl)methyl]-4-fluoro-1-(oxetane-2-carbonyl)pyrrolidin-3-yl]ethanesulfonamide]
